Laboratory results from patent US5541175A, “Cephalosporin antibiotics” (Lucky, Ltd., priority 1993, dated 1996).
Values after ≈ are worked out from the molar mass of the structure shown.

Key:
Experiment in all cases: Minimum inhibitory concentration (agar 2-fold dilution)
Format in all cases: cell-based
[1] = test system: Escherichia coli TEM3 3455E; settings: TEM33455E, 20 h, read-out: Minimum Inhibitory Concentration
Description: (§1) The minimum inhibitory concentration was determined by diluting the test compounds according to 2-fold dilution, suspending them in Muller-Hinton agar medium, inoculating 2 μl of the suspension containing the test strains having 10^7 CFU (Colony Forming Unit) per 1 ml into the medium and then culturing the test strains at 37° C. for 20 hours.

[2] = test system: Escherichia coli TEM7 3457E; settings: TEM73457E, 20 h, read-out: Minimum Inhibitory Concentration
Description: as §1

[3] = test system: Staphylococcus aureus 241; settings: Staphylococcus aureus; S. aureus 241; Muller-Hinton agar, 37° C., 20 hours; read-out: Minimum Inhibitory Concentration
Description: as §1

[4] = test system: Streptococcus faecalis 29212A; settings: Enterococcus faecalis; S. faecalis 29212A; Muller-Hinton agar, 37° C., 20 hours; read-out: Minimum Inhibitory Concentration
Description: as §1

[5] = test system: Escherichia coli TEM5 3739E; settings: TEM53739E, 20 h, read-out: Minimum Inhibitory Concentration
Description: as §1

[6] = test system: Staphylococcus aureus epidermidis 887E; settings: S. aureus epidermidis 887E, Muller-Hinton agar, 37° C., 20 hours, read-out: Minimum Inhibitory Concentration
Description: as §1

Escherichia coli 851E = settings: E. coli 851E, Muller-Hinton agar, 37° C., 20 hours
Description: as §1

[7] = test system: Staphylococcus aureus giorgio; settings: S. aureus giorgio, Muller-Hinton agar, 37° C., 20 hours, read-out: Minimum Inhibitory Concentration
Description: as §1

[8] = test system: Escherichia coli TEM1 1193E; settings: TEM11193E, 20 h, read-out: Minimum Inhibitory Concentration
Description: as §1

Proteus vulgaris 6059A = settings: P. vulgaris 6059A, Muller-Hinton agar, 37° C., 20 hours, read-out: Minimum Inhibitory Concentration
Description: as §1

Escherichia coli 3190Y = settings: E. coli 3190Y, Muller-Hinton agar, 37° C., 20 hours, read-out: Minimum Inhibitory Concentration
Description: as §1

[9] = test system: Klebsiella aerogenes SHV-1 1976E; settings: SHV11976E, K. aerogenes SHV-1 1976E, Muller-Hinton agar, 37° C., 20 hours
Description: as §1

[10] = test system: Enterobacter cloacae IND + VE 1194E; settings: E. cloacae IND + VE 1194E, Muller-Hinton agar, 37° C., 20 hours, read-out: Minimum Inhibitory Concentration
Description: as §1

[11] = test system: Serratia marcescens 1826E; settings: S. marcescens 1826E, Muller-Hinton agar, 37° C., 20 hours, read-out: Minimum Inhibitory Concentration
Description: as §1

[12] = test system: Pseudomonas aeruginosa 10145; settings: Pseudomonas aeruginosa; P. aeruginosa 10145; Muller-Hinton agar, 37° C., 20 hours; read-out: Minimum Inhibitory Concentration
Description: as §1

[13] = test system: Salmonella typhimurium 14028A; settings: Salmonella enterica; S. typhimurium 14028A; Muller-Hinton agar, 37° C., 20 hours; read-out: Minimum Inhibitory Concentration
Description: as §1

[14] = test system: Pseudomonas aeruginosa 1912E; settings: P. aeruginosa 1912E, Muller-Hinton agar, 37° C., 20 hours, read-out: Minimum Inhibitory Concentration
Description: as §1

[15] = test system: Escherichia coli TEM9 2639E; settings: TEM92639E, 20 h, read-out: Minimum Inhibitory Concentration
Description: as §1

[16] = test system: Staphylococcus aureus 6538P; settings: S. aureus 6538P, Muller-Hinton agar, 37° C., 20 hours, read-out: Minimum Inhibitory Concentration
Description: as §1

[17] = test system: Citrobacter diversus 2046E; settings: Citrobacter koseri; C. diversus 2046E; Muller-Hinton agar, 37° C., 20 hours; read-out: Minimum Inhibitory Concentration
Description: as §1

Staphylococcus aureus 77 = settings: Staphylococcus aureus; S. aureus 77; Muller-Hinton agar, 37° C., 20 hours; read-out: Minimum Inhibitory Concentration
Description: as §1

[18] = test system: Pseudomonas aeruginosa 6065; settings: Pseudomonas aeruginosa; P. aeruginosa 6065; Muller-Hinton agar, 37° C., 20 hours; read-out: Minimum Inhibitory Concentration
Description: as §1

Escherichia coli 10536 = settings: Escherichia coli; E. coli 10536; Muller-Hinton agar, 37° C., 20 hours; read-out: Minimum Inhibitory Concentration
Description: as §1

[19] = test system: Acinetobacter calcoaceticus 15473A; settings: A. calcoaceticus 15473A, Muller-Hinton agar, 37° C., 20 hours, read-out: Minimum Inhibitory Concentration
Description: as §1

[20] = test system: Klebsiella aerogenes K1 + 1082E; settings: 20 h, read-out: Minimum Inhibitory Concentration
Description: as §1

Enterobacter cloacae P99 = settings: P99, 20 h, read-out: Minimum Inhibitory Concentration
Description: as §1

Row | SMILES | MIC [1] [µg/mL] | MIC [2] [µg/mL] | MIC [3] [µg/mL] | MIC [4] [µg/mL] | MIC [5] [µg/mL] | MIC [6] [µg/mL] | MIC (Escherichia coli 851E) [µg/mL] | MIC [7] [µg/mL] | MIC [8] [µg/mL] | MIC (Proteus vulgaris 6059A) [µg/mL] | MIC (Escherichia coli 3190Y) [µg/mL] | MIC [9] [µg/mL] | MIC [10] [µg/mL] | MIC [11] [µg/mL] | MIC [12] [µg/mL] | MIC [13] [µg/mL] | MIC [14] [µg/mL] | MIC [15] [µg/mL] | MIC [16] [µg/mL] | MIC [17] [µg/mL] | also measured
1 | Nc1cc[n+](C/C=C/C2=C(C(=O)[O-])N3C(=O)[C@@H](NC(=O)/C(=N\O[C@@H](C(=O)O)c4ccc(O)c(O)c4)c4csc(N)n4)[C@H]3SC2)cn1 [Compound I-2b, 7-[(Z)-2-(2-aminothiazol-4-yl)-2-(α-carboxy-3,4-dihydroxybenzyloxyimino)acetamido]-3-[(E)-3-(4-aminopyrimidinium-1-yl)-1-propen-1-yl]-3-cephem-4-carboxylate] | 0.25 (≈ 0.374 µM) | 0.25 (≈ 0.374 µM) | 128 (≈ 191 µM) | 4 (≈ 5.98 µM) | 0.1 (≈ 0.15 µM) | 8 (≈ 12 µM) | 0.13 (≈ 0.194 µM) | 0.25 (≈ 0.374 µM) | 0.25 (≈ 0.374 µM) | 0.5 (≈ 0.748 µM) | 0.13 (≈ 0.194 µM) | 1 (≈ 1.5 µM) | 16 | 1 (≈ 1.5 µM) | 8 (≈ 12 µM) | 0.25 (≈ 0.374 µM) | 8 (≈ 12 µM) | 0.5 (≈ 0.748 µM) | 0.5 (≈ 0.748 µM) | 4 (≈ 5.98 µM) | MIC (Staphylococcus aureus 77): 2 µg/mL (≈ 2.99 µM); MIC [18]: 64 µg/mL (≈ 95.7 µM); MIC (Escherichia coli 10536): 0.13 µg/mL (≈ 0.194 µM); MIC [19]: 2 µg/mL (≈ 2.99 µM); MIC [20]: 2 µg/mL (≈ 2.99 µM); MIC (Enterobacter cloacae P99): 32 µg/mL (≈ 47.9 µM)
2 | Nc1nc(/C(=N/O[C@@H](C(=O)O)c2ccc(O)c(O)c2)C(=O)N[C@@H]2C(=O)N3C(C(=O)[O-])=C(/C=C/C[n+]4cnc(N)c5c4CCC5)CS[C@H]23)cs1 [Compound I-3b, 7-[(Z)-2-(2-aminothiazol-4-yl)-2-(α-carboxy-3,4-dihydroxybenzyloxyimino)acetamido]-3-[(E)-3-(4-amino-5,6-cyclopentanopyrimidinium-1-yl)-1-propen-1-yl]-3-cephem-4-carboxylate] | 0.5 (≈ 0.705 µM) | 0.5 (≈ 0.705 µM) | > 128 | 8 (≈ 11.3 µM) | 2 (≈ 2.82 µM) | 64 (≈ 90.3 µM) | 0.25 (≈ 0.353 µM) | 0.5 (≈ 0.705 µM) | 0.25 (≈ 0.353 µM) | 1 (≈ 1.41 µM) | 0.25 (≈ 0.353 µM) | 1 (≈ 1.41 µM) | 32 | 4 (≈ 5.64 µM) | 8 (≈ 11.3 µM) | 0.13 (≈ 0.183 µM) | 8 (≈ 11.3 µM) | 2 (≈ 2.82 µM) | 0.5 (≈ 0.705 µM) | 4 (≈ 5.64 µM) | MIC (Staphylococcus aureus 77): 4 µg/mL (≈ 5.64 µM); MIC [18]: 64 µg/mL (≈ 90.3 µM); MIC (Escherichia coli 10536): 0.13 µg/mL (≈ 0.183 µM); MIC [19]: 4 µg/mL (≈ 5.64 µM); MIC [20]: 1 µg/mL (≈ 1.41 µM); MIC (Enterobacter cloacae P99): 64 µg/mL (≈ 90.3 µM)
